Reference: paper PMC10537280, “Chemo-/Regio-Selective Synthesis of Novel Functionalized Spiro[pyrrolidine-2,3′-oxindoles] under Microwave Irradiation and Their Anticancer Activity” (Molecules, 2023)
Where two headings read alike, the source gives them in different places. Blank lines part the entries; values can stand above or below the compound they belong to.

Columns and labels:
[1] = system: human lung A549 cancer cell lines; set-up: method as in PMID 24063429; details: paclitaxel reference value; ref [80]; read-out: A549 Cells IC50; cited from earlier work
[2] = system: human HepG2 cancer cell lines; details: paclitaxel reference value; ref [82]; read-out: HepG2 Cells IC50; cited from earlier work
[3] = system: immortalized liver LO2 normal cell lines; details: paclitaxel reference value; ref [82]; read-out: LO2 Cells IC50; cited from earlier work
[4] = system: immortalized lung BEAS-2B normal cell lines; set-up: method as in PMID 24063429; details: paclitaxel reference value; ref [80]; read-out: BEAS-2B Cells IC50; cited from earlier work
[5] = system: immortalized lung BEAS-2B normal cell lines; test: MTT cytotoxicity assay, normal lung BEAS-2B cells; type: cell-based; details: Homo sapiens, MTT, 72 h, 0.19–100 μM, normal lung cells, read-out: BEAS-2B Cells IC50
Description: (§1) Adenocarcinomic human alveolar basal epithelial (A549) and human hepatoma (HepG2) cancer cell lines, immortalized normal human liver (LO2), human bronchial epithelial (BEAS-2B cells were purchased from [NT], Manassas, VA, USA). […] Invitrogen, Waltham, MA, USA). All cells were incubated at 37 °C in a 5% humidified CO2 incubator). All test compounds were dissolved in DMSO at a final concentration of 50 mM and stored at -20 °C before use. Cytotoxicity was assessed by the MTT (5 mg/mL) assay, as described previously. Briefly, 5 × 10^3 cells per well were seeded in 96-well plates before drug treatments. […] Cells without drug treatment were used as controls. Subsequently, 10 μL of 5 mg/mL MTT solution was added to each well and incubated at 37 °C for 4 h, followed by the addition of 100 μL solubilization buffer (12 mM HCl in a solution of 10% SDS) and overnight incubation. The absorbance, A570 nm, was then determined in each well on the next day. The percentage of cell viability was calculated using the expression: % viability = Atreated/Acontrol × 100, and was given as cytotoxicity (Table 2 and Table 3; […]

[6] = system: human lung A549 cancer cell lines; test: MTT cytotoxicity assay, lung cancer A549 cells; type: cell-based; details: for IC50: Homo sapiens, A549, MTT, 72 h, 0.19–100 μM, means of at least three independent experiments in duplicates, read-out: A549 Cells IC50
Description: as §1

[7] = system: immortalized liver LO2 normal cell lines; test: MTT cytotoxicity assay, normal liver LO2 cells; type: cell-based; details: Homo sapiens, L02; MTT, 72 h, 0.19–100 μM; normal liver cells; read-out: LO2 Cells IC50
Description: as §1

[8] = system: human HepG2 cancer cell lines; test: MTT cytotoxicity assay, liver cancer HepG2 cells; type: cell-based; details: for IC50: Homo sapiens, HepG2, 72 h, MTT, 72 h, 0.19–100 μM, means of at least three independent experiments in duplicates, read-out: HepG2 Cells IC50
Description: as §1

SMILES: CC(=O)O[C@H]1C(=O)[C@@]2(C)[C@H]([C@H](OC(=O)c3ccccc3)[C@]3(O)C[C@H](OC(=O)[C@H](O)[C@@H](NC(=O)c4ccccc4)c4ccccc4)C(C)=C1C3(C)C)[C@]1(OC(C)=O)CO[C@@H]1C[C@@H]2O [Paclitaxel]
IC50 [1]: 0.003 µM
IC50 [2]: 0.19 ± 0.4 µM
IC50 [3]: < 0.1 µM
IC50 [4]: 0.1 µM

SMILES: COc1ccc(OC)c(C2C([N+](=O)[O-])C3CCCN3C23C(=O)Nc2ccc(Br)cc23)c1 (stereo not shown) [Compound 4u, 5-bromo-2′-(2,5-dimethoxyphenyl)-1′-nitro-1′,2′,5′,6′,7′,7a′-hexahydrospiro[indoline-3,3′-pyrrolizin]-2-one]
IC50 [5]: > 100 µM
melting point: 190 to 192 °C
IC50 [6]: > 100 µM
IC50 [7]: > 100 µM
IC50 [8]: > 100 µM

melting point: 155 to 157 °C
SMILES: COc1ccc(C2C([N+](=O)[O-])C(C)NC23C(=O)Nc2ccc(Br)cc23)cc1OC (stereo not shown) [Compound 4j, 5-bromo-3′-(3,4-dimethoxyphenyl)-5′-methyl-4′-nitrospiro[indoline-3,2′-pyrrolidin]-2-one]
IC50 [5]: > 100 µM
IC50 [6]: > 100 µM
IC50 [7]: > 100 µM
IC50 [8]: > 100 µM

SMILES: COc1ccc(OC)c(C2C([N+](=O)[O-])C3CCCN3C23C(=O)Nc2ccccc23)c1 (stereo not shown) [Compound 4s, 2′-(2,5-dimethoxyphenyl)-1′-nitro-1′,2′,5′,6′,7′,7a′-hexahydrospiro[indoline-3,3′-pyrrolizin]-2-one]
IC50 [5]: > 100 µM
melting point: 174 to 176 °C
IC50 [6]: > 100 µM
IC50 [7]: > 100 µM
IC50 [8]: > 100 µM

SMILES: COc1cccc(C2C([N+](=O)[O-])C3CCCN3C23C(=O)Nc2ccc(Br)cc23)c1 (stereo not shown) [Compound 4t, 5-bromo-2′-(3-methoxyphenyl)-1′-nitro-1′,2′,5′,6′,7′,7a′-hexahydrospiro[indoline-3,3′-pyrrolizin]-2-one]
IC50 [5]: 67.7 µM
melting point: 145 to 147 °C
S.I. Selectivity index lung (IC50 normal cells/IC50 cancer cells) ([6]; BEAS-2B IC50 / A549 IC50): 1.50
IC50 [6]: 45.2 µM
IC50 [7]: 45.5 µM
IC50 [8]: 46.1 µM
S.I. Selectivity index liver (IC50 normal cells/IC50 cancer cells) ([8]; LO2 IC50 / HepG2 IC50): 0.99

melting point: 155 to 157 °C
SMILES: COc1ccc(C2C([N+](=O)[O-])C(Cc3ccccc3)NC23C(=O)Nc2ccc(Br)cc23)cc1OCc1ccccc1 (stereo not shown) [Compound 4g, 5′-benzyl-3′-(3-(benzyloxy)-4-methoxyphenyl)-5-bromo-4′-nitrospiro[indoline-3,2′-pyrrolidin]-2-one]
IC50 [5]: > 100 µM
IC50 [6]: > 100 µM
IC50 [7]: > 100 µM
IC50 [8]: > 100 µM
